In US10435697B2, “Recombinant expression system that senses pathogenic microorganisms” (priority 2014, dated 2019):
Ends that are not written are not given here.

Tests used:
[1] = test system: CqsS/CAI-1 quorum-sensing phosphorelay system of V. cholerae; experiment: CAI-1 sensing by two-plasmid system (CqsS, LuxU, LuxO; GFP under pQrr4); format: cell-based, Vibrio cholerae; details: LuxO induced by arabinose
Text: In the test construct the pBAD promoter drives LuxO. […] This is due to the downregulation of pQrr4 promoter by the CqsS cascade originating form V. cholera. In contrast, no alteration of GFP expression was observed when arabinose was present, but CAI-1 was absent. […] The system is inducible by arabinose in order to add an additional level of control.
In the next step, a double plasmid system, with the CqsS (SEQ ID NO 6), LuxU (SEQ ID NO 7) and LuxO (SEQ ID NO 8) genes expressed on one plasmid and GFP (SEQ ID NO) under pQrr4 promoter (SEQ ID NO 19) on another was generated. Thus, this system comprises the CAI-1 sensor module, in which phosphorylated LuxO activates the Qrr4 promoter. In the test construct the pBAD promoter drives LuxO, which is inducible by arabinose.
In other words, the system changes its fluorescence with different concentrations of CAI-1.

[2] = test system: V. cholerae; details: previously shown (Da Silva 2008; Moghaddam 2012; Yaraksa 2014); cited from earlier work
[3] = test system: E. coli Top10; experiment: Growth curves (OD600) of E. coli Top10 after induced expression of the peptide from a plasmid; format: cell-based, Escherichia coli
Text: To evaluate the activity of Microcin S (mcsS) and Microcin immunity protein (mcsI) in E. coli Top10 cells five different plasmids were constructed (FIG. 10).
Moreover, also the effect of Microcin immunity protein (mcsI) in the presence of Microcin S was studied. For this, the mcsI gene was introduced into the pBbE8K+McsS-YebF-I and pBbE8K+McsS-I plasmids resulting in pBbE8K+McsI+McsS-YebF-II and pBbE8K+McsI+McsS-II, respectively. In these constructs, mcsS expression is controlled by an araC pBAD activator-promoter (SEQ ID NO), rendering Microcin S expression inducible by L-arabinose. In contrast, mcsI expression is constitutively ON when using the rrnB promoter (SEQ ID NO 28).
Furthermore, also the effect of Microcin whole cascade in E. coli Top10 growing in liquid culture with 0.125% arabinose and without arabinose after being transformed with construct 5 of FIG. 12 was studied.
For example, in the case of CM11 (P3) the P3 gene was cloned under the arabinose promoter (pBAD) in the pBbE8K vector resulting in the pBbE8K+P3 plasmid. In other words, P3 expression in this construct is controlled by an araC PBAD activator-promoter, rendering P3 expression inducible by L-arabinose.
In addition, in order to characterize the lysis activity in E. coli, the lysis E7 gene was cloned under the tetracycline promoter (pTet) in the pBbA2C vector resulting in the pBbA2C+E7 plasmid.

[4] = test system: pathogenic E. coli; details: Yaraksa et al. 2014; cited from earlier work
[5] = test system: V. cholerae (A1522 Rugose-GFP); format: cell-based, Vibrio cholerae; details: LB broth, 18-20 h at 37° C., absorbance and GFP fluorescence monitored, DMSO control
Procedure: […]. The target cells were effectively killed at an MIC of 50 μM. As a control only DMSO was used. As the target cells express GFP embedded into its chromosome, the GFP fluorescence (B) along with the absorbance (growth) (A) was monitored in this experiment.
(§1) Moreover, a minimum inhibitory concentration (MIC) assay was conducted using CM11 (P3). The medium used for the broth microdilution test was LB Broth and the cells were V. cholera A1522-Rugose-GFP and E. coli Nissile strains. Overnight cultures were transferred into 5 ml of LB and were grown at 37° C. for 2-3 h. To approximate the density of 0.5 McFarland standard, this suspension with the inoculum concentration of 108 colony forming units (CFU/ml) was then diluted to 106 CFU/ml with the LB broth. Peptide P3 stock solution of 1000 μg/ml was prepared using DMSO. Serial two-fold dilutions of the peptide (P3) with the following concentration (2-100 μg/ml) were prepared with LB broth and placed in 96-well microtiter plates and the lowest concentration inhibiting visible growth after 18-20 h at 37° C. was recorded as MIC (see FIGS. 16 and 17).

[6] = test system: E. coli Nissile; format: cell-based, Escherichia coli; details: LB broth, 18-20 h at 37° C., DMSO control
Procedure: FIG. 17 MIC of the synthetic peptide CM11 (P3) against E. coli Nissile. […] As a control only DMSO was used.
as §1

[7] = test system: V. cholerae; experiment: Microbroth dilution assay of purified Microcin S on V. cholerae; format: cell-based, Vibrio cholerae
Procedure: (§2) In addition, the Microcin S peptide was purified to test its efficacy on V. cholerae and E. coli. […] Subsequently, the cells were pelleted by centrifugation at 4000 g for 20 min and lysed using a sonicator. Purification of Microcin S was carried out using Qiagen Ni-NTA fast start kit. The eluate was dialysed using Slide-A-Lyzer dialysis cassette and a 2 KDa cutoff (Life Technologies) for 4 hrs in 1×PBS. The dialysed samples were concentrated by ultra filtration using a molecular mass cutoff membrane (Amicon Ultra-15 Centrifugal Filter Unit, Millipore). As the estimated size of the protein is approximately 12 kDa, the first concentration was done using a 30 kDa cutoff membrane where the flow-through was collected and subsequently passed through a 3 kDa cutoff membrane. The resulting retentate was collected and the concentration was quantified using Quant-IT protein assay kit (Life Technologies).
(§3) The induced sample expressed has Microcin S (FIG. 13B) and the fluorescence reading from the Quant-it assay was 1135, which was close to a concentration of 200 ng/μl, calculated from the standard curve (FIG. 13A). […] After the presence of Microcin S was confirmed from the purified sample, a microbroth dilution assay was carried out to measure the minimum inhibitory concentration of purified Microcin S on V. cholerae and E. coli. […]

[8] = test system: E. coli wt; experiment: Microbroth dilution assay of purified Microcin S on E. coli; format: cell-based, Escherichia coli
Procedure: as §2, §3

[9] = expression induced with 0.125% L-arabinose (pBAD), vs un-induced

CCCCCCCCCC(=O)[C@@H](O)CC [CAI-1, (S)-3-hydroxytridecan-4-one]
GFP expression on addition of CAI-1 [1]: a drop in the GFP expression was observed

CM15 (KWKLFKKIGAVLKVL-NH2)
activity against V. cholerae [2]: show inhibitory activity

G12.21 (RRVSRRPMRRYRSRRPRRLV)
activity against V. cholerae [2]: effectively control the growth of V. cholerae both in vitro and in vivo

G14.15 (GRSRWRRVSRRFMRR)
activity against V. cholerae [2]: effectively control the growth of V. cholerae both in vitro and in vivo

Lysis E7 (MKKITGIILLLLAAIILAACQANYIRDVQGGTVSPSSTAELTGVETQ; Secretory peptide)
time to lyse E. coli ([3]; 200 nM atc): ≤ 4 h | OD600 of host cell after induction (lysis) ([3]; pBbA2C+E7, 200 nM anhydrotetracycline, vs un-induced): reduced significantly due to the lysis

Magainin 2 (GIGKFLHSAKKFGKAFVGEIMNS; listed as Xenopus laevis)
activity against V. cholerae [2]: good killing efficiency | activity against pathogenic E. coli [4]: good killing efficiency

McsS-YebF
growth (OD600) of host cell after induction [3, 9]: complete growth inhibition

WKLFKKILKVL-NH2 [CM11]
MIC [5]: 50 µM | MIC [6]: 25 µM | growth (OD600) of host cell after induction ([3]; pBbE8K+P3, induced with 0.2% L-arabinose, vs un-induced, listed as CM11 (P3)): reduces the growth of E. coli | growth (OD600) of host cell after induction ([3]; pBbE8K+P3, induced with 0.2% L-arabinose, vs un-induced, listed as P3): reduced significantly | activity against V. cholerae [2]: show inhibitory activity

B1: Microcin S (protein, listed as Escherichia coli)
chain: MSNIRELSFDEIALVSGGNANSNYEGGGSRSRNTGARNSLGRNAPTHIYSDPSTVKCANAVFSGMVGGAIKGGPVGMTRGTIGGAVIGQCLSGGGNGNGGGNRAGSSNCSGSNVGGTCSR
inhibitory activity [7]: has inhibitory activity | Minimal inhibition concentration ([7]; LB broth, 4 hrs, OD): 100 µg/mL | inhibitory activity [8]: has inhibitory activity | Minimal inhibition concentration ([8]; LB broth, 4 hrs, OD): 100 µg/mL | growth (OD600) of host cell after induction [3, 9]: reduced OD600 readings | growth (OD600) of host cell after induction ([3]; expression induced with 0.125% L-arabinose (pBAD), vs un-induced, listed as McsS): complete growth inhibition
